Reference: patent publication US20040234981A1, “Method of determining dna base sequence” (priority 2001, published 2004)
Several values for one entry are separate records, joined by “and”; a condition that tells them apart may be missing. Equal values may be shown once.

B1: T7 RNA polymerase F644Y/Δ2: T7 RNA polymerase F644Y deficient in amino acids 172 and 173 and 178 through 180; plasmid pT7RF644Y/Δ2 (protein, UniProt P00573 1-883, looked up, variant F644Y del172-173 del178-180)
T7 RNA polymerase: MNTINIAKNDFSDIELAAIPFNTLADHYGERLAREQLALEHESYEMGEARFRKMFERQLKAGEVADNAAAKPLITTLLPKMIARINDWFEEVKAKRGKRPTAFQFLQEIKPEAVAYITIKTTLACLTSADNTTVQAVASAIGRAIEDEARFGRIRDLEAKHFKKNVEEQLNVGHVAFMQVVEADMLSKGLLGGEAWSSWHKEDSIHVGVRCIEMLIESTGMVSLHRQNAGVVGQDSETIELAPEYAEAIATRAGALAGISPMFQPCVVPPKPWTGITGGGYWANGRRPLALVRTHSKKALMRYEDVYMPEVYKAINIAQNTAWKINKKVLAVANVITKWKHCPVEDIPAIEREELPMKPEDIDMNPEALTAWKRAAAAVYRKDKARKSRRISLEFMLEQANKFANHKAIWFPYNMDWRGRVYAVSMFNPQGNDMTKGLLTLAKGKPIGKEGYYWLKIHGANCAGVDKVPFPERIKFIEENHENIMACAKSPLENTWWAEQDSPFCFLAFCFEYAGVQHHGLSYNCSLPLAFDGSCSGIQHFSAMLRDEVGGRAVNLLPSETVQDIYGIVAKKVNEILQADAINGTDNEVVTVTDENTGEISEKVKLGTKALAGQWLAYGVTRSVTKRSVMTLAYGSKEYGFRQQVLEDTIQPAIDSGKGLMFTQPNQAAGYMAKLIWESVSVTVVAAVEAMNWLKSAAKLLAAEVKDKKTGEILRKRCAVHWVTPDGFPVWQEYKKPIQTRLNLMFLGQFRLQPTINTNKDSEIDAHKQESGIAPNFVHSQDGSHLRKTVVWAHEKYGIESFALIHDSFGTIPADAANLFKAVRETMVDTYESCDVLADFYDQFADQLHESQLDKMPALPAKGNLNLRDILESDFAFA
B2: T7 RNA polymerase F644Y/Δ3: T7 RNA polymerase F644Y with Δ3 deficiency (DEL 178-180) (protein, UniProt P00573 1-883, looked up, variant F644Y del178-180)
T7 RNA polymerase: MNTINIAKNDFSDIELAAIPFNTLADHYGERLAREQLALEHESYEMGEARFRKMFERQLKAGEVADNAAAKPLITTLLPKMIARINDWFEEVKAKRGKRPTAFQFLQEIKPEAVAYITIKTTLACLTSADNTTVQAVASAIGRAIEDEARFGRIRDLEAKHFKKNVEEQLNKRVGHVAFMQVVEADMLSKGLLGGEAWSSWHKEDSIHVGVRCIEMLIESTGMVSLHRQNAGVVGQDSETIELAPEYAEAIATRAGALAGISPMFQPCVVPPKPWTGITGGGYWANGRRPLALVRTHSKKALMRYEDVYMPEVYKAINIAQNTAWKINKKVLAVANVITKWKHCPVEDIPAIEREELPMKPEDIDMNPEALTAWKRAAAAVYRKDKARKSRRISLEFMLEQANKFANHKAIWFPYNMDWRGRVYAVSMFNPQGNDMTKGLLTLAKGKPIGKEGYYWLKIHGANCAGVDKVPFPERIKFIEENHENIMACAKSPLENTWWAEQDSPFCFLAFCFEYAGVQHHGLSYNCSLPLAFDGSCSGIQHFSAMLRDEVGGRAVNLLPSETVQDIYGIVAKKVNEILQADAINGTDNEVVTVTDENTGEISEKVKLGTKALAGQWLAYGVTRSVTKRSVMTLAYGSKEYGFRQQVLEDTIQPAIDSGKGLMFTQPNQAAGYMAKLIWESVSVTVVAAVEAMNWLKSAAKLLAAEVKDKKTGEILRKRCAVHWVTPDGFPVWQEYKKPIQTRLNLMFLGQFRLQPTINTNKDSEIDAHKQESGIAPNFVHSQDGSHLRKTVVWAHEKYGIESFALIHDSFGTIPADAANLFKAVRETMVDTYESCDVLADFYDQFADQLHESQLDKMPALPAKGNLNLRDILESDFAFA

Key:
Format in all cases: biochemical
3′-dATP [1] = experiment: Test (2): 3′-dATP added during in vitro transcription with Biotin-labeled CTP, chemoluminescent signal detection; settings: 3′-dATP concentration 0.00125 mM, wild form taken as 1, average of three runs
Description: (§1) The ability to incorporate 3′-dATP of the Δ type enzyme of purified T7 RNA polymerase was compared to that of the wild type and F644Y mutation.
In this method, 3′-dATP was added during an in vitro transcription reaction and the synthesis level was determined by comparison with synthesis impairment. This will be described in greater detail. The template employed was pBluescriptII (Stratagene) pretreated with the restriction enzyme ScaI (made by Nippon Gene). The reaction conditions were: 40 mM Tris-HCl, pH 8.0, 25 mM NaCl, 8 mM MgCl2, 2 mM spermidine-(HCl)3, and 5 mM DTT. The concentration of ribonucleotides rATP, rCTP, rGTP, and rUTP was 0.5 mM. A 0.1 mM quantity of Biotin-labeled CTP was added and 3′-dATP was added in ranges of 0.00125 mM, 0.0025 mM, and 0.005 mM. A 25 U quantity of enzymes purified as set forth above were added to 10 μL of this solution and the reaction was conducted for 60 min at 37° C. At the conclusion of the reaction, 1 μL of 10× gel loading buffer (1 mM EDTA, 1% SDS, 50% glycerol, and 0.05% BPB) was added. The entire solution was then subjected to electrophoresis in a 1% modified formamide gel. At the conclusion of electrophoresis, northern hybridization was conducted, the synthesized product was transcribed onto a nylon membrane, and signal detection was conducted based on a chemoluminescent substrate according to a protocol of anti-SA-AP antibody (made by Oriental Yeast Co., diluted 20,000-fold) and CDP-Star™ (made by Roche Co.). A Fluoro S Multiimager (BioRad Co.) and Multianalyst, an attached image analyzing software package, were then employed to determine the level of the signal detected.

[2] = test system: fluorescent-labeled 3′-deoxynucleotide; experiment: Ability to incorporate fluorescent-labeled 3′-deoxynucleotide, fluorescent signal intensity on ABI 377 XL Sequencer
Description: A comparison was conducted of the ability to incorporate florescent-labeled 3′-deoxynucleotide of Δ-type enzyme of purified T7 RNA polymerase.
This method was conducted in accordance with the method of Sasaki et al. (Sasaki, N., et al. Gene, 222(1): 17-24 (1998)). In greater detail, pBluescriptII DNA was employed as template. A solution obtained by mixing Bodipy(R6G)-3′dATP, Bodipy(FL)-3′dGTP, Bodipy(581/591)-3′dCTP, Bodipy(564/570)-3′dUTP, ATP, GTP, CTP, and UTP in prescribed proportions was employed to conduct reactions differing only with regard to the T7 RNA polymerase employed. The enzymes employed were 100 units of T7 RNA polymerase (wild type) and T7 RNA polymerase F644Y; and 50 units of T7 RNA polymerase F644Y/Δ1. The reaction product was subjected to electrophoresis with an ABI 377 XL Sequencer. The average value of the fluorescent signal intensity was compared for each nucleotide.
Column (2) is a conversion of the value of (1) per unit of enzyme. Numbers shown in parentheses denote values relative to a value of “1” for the signal intensity of wild enzyme. […] Since the ABI 377 XL Sequencer is not a device for quantitative analysis, and operations is conducted on an extremely small amount of samples, large errors are to be expected.

3′-dATP [3] = experiment: Test (1): 3′-dATP added during in vitro transcription, amount of RNA synthesized (SYBER Green II gel image); settings: 3′-dATP concentration 0.024 mM, wild form of T7 RNA polymerase taken as 1, inverse of RNA synthesis level
Description: as §1
In this method, 3′-dATP was added during an in vitro transcription reaction and the synthesis level was determined by comparison with synthesis impairment. This will be described in greater detail. The template employed was pBluescriptII (Stratagene) pretreated with the restriction enzyme ScaI (made by Nippon Gene). The reaction conditions were: 40 mM Tris-HCl, pH 8.0, 25 mM NaCl, 8 mM MgCl2, 2 mM spermidine-(HCl)3, and 5 mM DTT. The concentration of nucleotides ATP, CTP, GTP, and UTP was 0.5 mM. Of these, ATP was replaced with 3′-dATP (Sigma) in ranges of 0.006 mM, 0.008 mM, 0.012 mM, and 0.024 mM. The above purified enzymes were added to 20 μL of this solution and the reaction was conducted for 30 to 60 min at 37° C. At the conclusion of the reaction, 4 μL of 5× gel loading buffer was added (15% Ficoll, 0.1% BPB, 0.1% XC, 0.5% SDS, and 0.1 M EDTA). The entire solution was then subjected to electrophoresis in a 1% modified agarose gel containing formaldehyde. At the conclusion of electrophoresis, 10,000-fold dilution was conducted with SYBER Green II (made by Molecular Probe Co.) and dying was conducted for 20 to 40 min according to a protocol of addition to the product. A Fluoro S Multiimager (BiORad Co.) was then employed to irradiate ultraviolet radiation and pick up the fluorescent image. Multianalyst, an attached image analyzing software package, was used to determine the amount of RNA that had been synthesized from the image picked up. The various values of the results were compared. An increase in ability to incorporate 3′-dATP should result in a drop in the synthesis level. Accordingly, a comparison was made with a control, and the inverse thereof was employed as indicator of how readily 3′-dATP was incorporated.

[4] = relative to a value of 1 for the signal intensity of wild enzyme

Molecule	Relative ability to incorporate 3′-dATP (3′-dATP [1])	(1) Average signal intensity U ([2]; Bodipy(564/570)-3′dUTP, 100 units of enzyme (50 units for F644Y/Δ1))	(1) Average signal intensity C ([2]; Bodipy(581/591)-3′dCTP, 100 units of enzyme (50 units for F644Y/Δ1))	(1) Average signal intensity G ([2]; Bodipy(FL)-3′dGTP, 100 units of enzyme (50 units for F644Y/Δ1))	(1) Average signal intensity A ([2]; Bodipy(R6G)-3′dATP, 100 units of enzyme (50 units for F644Y/Δ1))	(2) Signal intensity per unit of enzyme G ([2]; conversion of (1) per unit of enzyme)	Signal intensity per unit of enzyme A, value in parentheses relative to wild enzyme [2, 4]	Signal intensity per unit of enzyme C, value in parentheses relative to wild enzyme [2, 4]	Signal intensity per unit of enzyme G, value in parentheses relative to wild enzyme [2, 4]	Signal intensity per unit of enzyme U, value in parentheses relative to wild enzyme [2, 4]	Relative ability to incorporate 3′-dATP (3′-dATP [3])	Relative ability to incorporate 3′-dATP (3′-dATP [1]; listed as F644Y/Δ3)	Relative ability to incorporate 3′-dATP (3′-dATP [1]; listed as T7 RNA polymerase F644Y/Δ 3)
T7 RNA polymerase (wild type): wild RNA polymerase derived from T7 phage	1.00	120	146	220	67	2.2	(1.0)	(1.0)	(1.0)	(1.0)	1.00		
B1											almost the same results		
B2												2.00±0.3 and 2.00	2.00 ± 0.3
